Measured values published in patent US20260250318A1, “COMPOSITIONS AND METHODS FOR CROSSING THE BLOOD BRAIN BARRIER” (VOYAGER THERAPEUTICS, INC., priority 2022, published 2026).

Columns and labels:
Details in all cases: synthetic library passage 3, intravenous, relative to wild-type AAV9
[1] = system: brain, spinal cord, and DRG of the NHPs; assay: NGS fold enrichment of synthetic library (passage 3) in NHPs, first cross-species screen; type: in vivo, cynomolgus macaques (Macaca fascicularis)
In short: (§1)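 Fold enrichment versus wild-type AAV9 was derived by NGS of RT-PCR-amplified RNA from nervous tissue, collected e.g. 28 days after IV dosing […]. The library (passage 3) was given to two NHPs aged 2-4 years and to 6-8-week BALB/c and C57Bl/6 mice (n=3 each).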

brain [2] = assay: NGS fold enrichment of synthetic library (passage 3) in C57Bl/6 mice, first cross-species screen; type: in vivo
In short: as §1

brain [3] = assay: NGS fold enrichment of synthetic library (passage 3) in BALB/c mice, first cross-species screen; type: in vivo
In short: as §1

[4] = RNA from spinal cord of NHPs, NGS
[5] = RNA from brain of C57Bl/6 mice, NGS
[6] = RNA from brain of BALB/c mice, NGS

## GSGSQLMSLQNQQT
[1]; RNA NGS, brain of NHPs
  Fold enrichment over AAV9 in the brain of NHPs: 2.065 fold
[1]; RNA NGS, spinal cord of NHPs
  Fold enrichment over AAV9 in the spinal cord of NHPs: 3.559 fold
Brain [2]; RNA NGS, brain of C57Bl/6 mice
  Fold enrichment over AAV9 in the brain of Mice (C57Bl/6): 0.563 fold
Brain [3]; RNA NGS, brain of BALB/c mice
  Fold enrichment over AAV9 in the brain of Mice (BALB/c): 0.172 fold

## GSSQNQQHDMRLRT
[1]; RNA from brain of NHPs, NGS
  Fold enrichment over AAV9 in the brain of NHPs: 1.386 fold
[1]; [4]
  Fold enrichment over AAV9 in the spinal cord of NHPs: 2.645 fold
Brain [2]; [5]
  Fold enrichment over AAV9 in the brain of Mice (C57Bl/6): 0.669 fold
Brain [3]; [6]
  Fold enrichment over AAV9 in the brain of Mice (BALB/c): 0.552 fold

## GSGQNQRLHGVDQT
[1]; RNA from brain of NHPs, NGS
  Fold enrichment over AAV9 in the brain of NHPs: 1.318 fold
[1]; [4]
  Fold enrichment over AAV9 in the spinal cord of NHPs: 4.655 fold
Brain [2]; [5]
  Fold enrichment over AAV9 in the brain of Mice (C57Bl/6): 0.459 fold
Brain [3]; [6]
  Fold enrichment over AAV9 in the brain of Mice (BALB/c): 0.341 fold

## GSGMRQAGVQNQQT
[1]; RNA NGS, brain of NHPs
  Fold enrichment over AAV9 in the brain of NHPs: 1.032 fold
[1]; RNA NGS, spinal cord of NHPs
  Fold enrichment over AAV9 in the spinal cord of NHPs: 0.811 fold
Brain [2]; RNA NGS, brain of C57Bl/6 mice
  Fold enrichment over AAV9 in the brain of Mice (C57Bl/6): 0.736 fold
Brain [3]; RNA NGS, brain of BALB/c mice
  Fold enrichment over AAV9 in the brain of Mice (BALB/c): 0.775 fold

## GESRAVLSGQNQQT
[1]; RNA NGS, brain of NHPs
  Fold enrichment over AAV9 in the brain of NHPs: 1.476 fold
[1]; RNA NGS, spinal cord of NHPs
  Fold enrichment over AAV9 in the spinal cord of NHPs: 0.938 fold
Brain [2]; RNA NGS, brain of C57Bl/6 mice
  Fold enrichment over AAV9 in the brain of Mice (C57Bl/6): 0.789 fold
Brain [3]; RNA NGS, brain of BALB/c mice
  Fold enrichment over AAV9 in the brain of Mice (BALB/c): 0.368 fold

## GSGQNQQAPHKKET
[1]; RNA from brain of NHPs, NGS
  Fold enrichment over AAV9 in the brain of NHPs: 1.180 fold
[1]; [4]
  Fold enrichment over AAV9 in the spinal cord of NHPs: 0.598 fold
Brain [2]; [5]
  Fold enrichment over AAV9 in the brain of Mice (C57Bl/6): 0.994 fold
Brain [3]; [6]
  Fold enrichment over AAV9 in the brain of Mice (BALB/c): 0.689 fold

## GSGLPDRNLQNQQT
[1]; RNA NGS, brain of NHPs
  Fold enrichment over AAV9 in the brain of NHPs: 1.471 fold
[1]; RNA NGS, spinal cord of NHPs
  Fold enrichment over AAV9 in the spinal cord of NHPs: 7.306 fold
Brain [2]; RNA NGS, brain of C57Bl/6 mice
  Fold enrichment over AAV9 in the brain of Mice (C57Bl/6): 1.136 fold
Brain [3]; RNA NGS, brain of BALB/c mice
  Fold enrichment over AAV9 in the brain of Mice (BALB/c): 0.611 fold

## GSGQNQQTSQSPPT
[1]; RNA from brain of NHPs, NGS
  Fold enrichment over AAV9 in the brain of NHPs: 1.194 fold
[1]; [4]
  Fold enrichment over AAV9 in the spinal cord of NHPs: 1.208 fold
Brain [2]; [5]
  Fold enrichment over AAV9 in the brain of Mice (C57Bl/6): 0.851 fold
Brain [3]; [6]
  Fold enrichment over AAV9 in the brain of Mice (BALB/c): 0.478 fold

## GSGQLVLTLQNQQT
[1]; RNA from brain of NHPs, NGS
  Fold enrichment over AAV9 in the brain of NHPs: 1.143 fold
[1]; [4]
  Fold enrichment over AAV9 in the spinal cord of NHPs: 0.000 fold
Brain [2]; [5]
  Fold enrichment over AAV9 in the brain of Mice (C57Bl/6): 0.336 fold
Brain [3]; [6]
  Fold enrichment over AAV9 in the brain of Mice (BALB/c): 0.336 fold

## GSGQNQQASLPSRT
[1]; RNA NGS, brain of NHPs
  Fold enrichment over AAV9 in the brain of NHPs: 1.456 fold
[1]; RNA NGS, spinal cord of NHPs
  Fold enrichment over AAV9 in the spinal cord of NHPs: 0.389 fold
Brain [2]; RNA NGS, brain of C57Bl/6 mice
  Fold enrichment over AAV9 in the brain of Mice (C57Bl/6): 0.930 fold
Brain [3]; RNA NGS, brain of BALB/c mice
  Fold enrichment over AAV9 in the brain of Mice (BALB/c): 0.673 fold

## GNILHATSGQNQQT
[1]; RNA NGS, brain of NHPs
  Fold enrichment over AAV9 in the brain of NHPs: 2.136 fold
[1]; RNA NGS, spinal cord of NHPs
  Fold enrichment over AAV9 in the spinal cord of NHPs: 0.125 fold
Brain [2]; RNA NGS, brain of C57Bl/6 mice
  Fold enrichment over AAV9 in the brain of Mice (C57Bl/6): 1.159 fold
Brain [3]; RNA NGS, brain of BALB/c mice
  Fold enrichment over AAV9 in the brain of Mice (BALB/c): 0.424 fold

## GSGDTLHMLQNQQT
[1]; RNA NGS, brain of NHPs
  Fold enrichment over AAV9 in the brain of NHPs: 3.317 fold
[1]; RNA NGS, spinal cord of NHPs
  Fold enrichment over AAV9 in the spinal cord of NHPs: 1.174 fold
Brain [2]; RNA NGS, brain of C57Bl/6 mice
  Fold enrichment over AAV9 in the brain of Mice (C57Bl/6): 0.393 fold
Brain [3]; RNA NGS, brain of BALB/c mice
  Fold enrichment over AAV9 in the brain of Mice (BALB/c): 0.482 fold

## GSGTVHAATQNQQT
[1]; RNA NGS, brain of NHPs
  Fold enrichment over AAV9 in the brain of NHPs: 1.721 fold
[1]; RNA NGS, spinal cord of NHPs
  Fold enrichment over AAV9 in the spinal cord of NHPs: 1.676 fold
Brain [2]; RNA NGS, brain of C57Bl/6 mice
  Fold enrichment over AAV9 in the brain of Mice (C57Bl/6): 0.563 fold
Brain [3]; RNA NGS, brain of BALB/c mice
  Fold enrichment over AAV9 in the brain of Mice (BALB/c): 0.476 fold

## GSGQNQYSSTNPQT
[1]; RNA NGS, brain of NHPs
  Fold enrichment over AAV9 in the brain of NHPs: 1.542 fold
[1]; RNA NGS, spinal cord of NHPs
  Fold enrichment over AAV9 in the spinal cord of NHPs: 2.251 fold
Brain [2]; RNA NGS, brain of C57Bl/6 mice
  Fold enrichment over AAV9 in the brain of Mice (C57Bl/6): 0.544 fold
Brain [3]; RNA NGS, brain of BALB/c mice
  Fold enrichment over AAV9 in the brain of Mice (BALB/c): 0.535 fold

## GSGQIVSTQTNQQT
[1]; RNA NGS, brain of NHPs
  Fold enrichment over AAV9 in the brain of NHPs: 1.456 fold
[1]; RNA NGS, spinal cord of NHPs
  Fold enrichment over AAV9 in the spinal cord of NHPs: 1.103 fold
Brain [2]; RNA NGS, brain of C57Bl/6 mice
  Fold enrichment over AAV9 in the brain of Mice (C57Bl/6): 0.453 fold
Brain [3]; RNA NGS, brain of BALB/c mice
  Fold enrichment over AAV9 in the brain of Mice (BALB/c): 0.512 fold

## GALVSPISGQNQQT
[1]; RNA NGS, brain of NHPs
  Fold enrichment over AAV9 in the brain of NHPs: 1.912 fold
[1]; RNA NGS, spinal cord of NHPs
  Fold enrichment over AAV9 in the spinal cord of NHPs: 1.051 fold
Brain [2]; RNA NGS, brain of C57Bl/6 mice
  Fold enrichment over AAV9 in the brain of Mice (C57Bl/6): 0.640 fold
Brain [3]; RNA NGS, brain of BALB/c mice
  Fold enrichment over AAV9 in the brain of Mice (BALB/c): 0.347 fold
